Test results as given in patent US9018168B2, “Therapeutic method for treating congestive heart failure” (Madeleine Pharmaceuticals Pty Ltd, priority 2010, dated 2015).
Where two headings read alike, the source gives them in different places. No end group written: not given here.

Experiments:
[1] = cited from earlier work
[2] = Expected increase in total circulating VSDL at originally selected doses; type: in vivo, human
Method: Since it was thought that subjects suffering significant CHF are unable to produce adequate endogenous amounts of natriuretic peptides to compensate for congestion, the present applicant had selected doses of exogenous VSDL infusion of 50 ng/kg/min, 100 ng/kg/min and 200 ng/kg/min for 60 minutes to ascertain the approximate amounts of exogenous VSDL required by late NHYA class III—NYHA class IV patients to reinstate homeostasis. Such doses were expected to result in an approximately 2-fold, 4-fold and 8-fold increase in total circulating VSDL, respectively. Further, the present applicant had particularly proposed an exogenous dose of VSDL at <100 ng/kg/min (for 60 mins) for the treatment of chronic CHF or ADCHF as a safe and effective dosage, since it has been identified that the release rate from the heart of VSDL with physiological stimuli is about 138 ng/kg body weight per minute^16 and similar dosages have been previously observed to cause a marked natriuresis and diuresis in healthy humans^17, 18 and, also, improved haemodynamic and renal parameters in persons with stable NYHA class III chronic CHF^10. The molar equivalent of the 100 ng/kg body weight dose (for 60 mins) is 26 pmol/kg body weight (for 60 mins). […] In particular, at 12.5 ng/kg/min (for 60 mins) and 25 ng/kg/min (for 60 mins). […]

[3] = system: subjects with chronic CHF or ADCHF (NYHA class III - NYHA class IV); assay: Example 1: treatment of ADCHF with iv administration of vessel dilator; type: in vivo, human
Source text: This example describes a study to examine whether VSDL administration to ADCHF patients will be safe and induce improvements in haemodynamic parameters, as well as renal, natriuretic and diuretic parameters, whilst regulating plasma volume and BP within clinically acceptable ranges and without seriously adverse side effects.
VSDL in the form of a white lyophilised powder (synthesised using standard protein synthesis method by Auspep Pty Ltd, Parkville, VIC, Australia), stored in an ultra low freezer (−80° C.), was reconstituted in a vial with 10 ml of 0.9% saline (preservative free) and aseptically transferred into a 20 ml syringe (that connects to a patient cannula) before use.
Initially, an iv dose of 12.5 ng/kg/min was infused into test subjects for 60 minutes with a syringe driver (Alaris Asena GS syringe driver; C are Fusion Corporation, San Diego, Calif., United States of America). This “safety dose” was chosen merely to trial the subjects for any adverse effects. Subsequently, a dose of 25 ng/kg/min (as infused for 60 minutes) was trialled. Additionally, a trial will be conducted with a dose of 50 ng/kg/min (for 60 minutes).
Test adult subjects, both male and female, showing either acute exacerbations of chronic CHF or ADCHF (ie in individuals who had not previously shown heart failure), were recruited for the study. The following inclusion and exclusion criteria were applied:
In order to be eligible, a subject must have chronic CHF or ADCHF (NYHA class III—NYHA class IV) defined as: • 1. Showing dyspnoea at rest or dyspnoea with minimal activity (ie difficulty breathing at rest while sitting, or difficulty breathing while lying flat or with one pillow, or difficulty breathing with minimal activity such as talking, eating); AND • 2. Showing at least one of the following signs: • Tachypnoea with respiratory rate >20 breaths per minute, OR • Pulmonary congestion/oedema with rales or crackles/crepitations at least a third above lung bases; AND • 3. At least one of the following objective measures: • Showing, by chest X-ray, pulmonary oedema/congestions OR • Circulating B-type natriuretic peptide (BNP) concentration of ≧400 pg/ml or circulating NT-proBNP concentration of ≧1000 pg/ml at presentation, OR • PCWP >20 mmHg OR • Showing systolic dysfunction within the last 12 months (EF<50%) as determined by TTE, nuclear testing, cardiac MRI or ventricular angiography); and be: • 4. Male and/or female, 18 years or older; and • 5. If a woman of child bearing potential, testing negative to 13-hCG. Exclusion Criteria: • 1. Evidence in the ED for Myocardial Infarction (MI) or high risk acute coronary syndrome within past 6 weeks, as determined by creatinine kinase (CK)/creatinine kinase muscle-brain isoenzyme (CK-MB) ≧2 times upper limit of normal or elevation of Troponin T at baseline >0.1 or as determined by Trans-Thoracic […] (TTE); • 2. Hypotension (SBP <90 mmHg), cardiogenic shock, volume depletion; • 3. Persistent, uncontrolled hypertension (SBP >180 mm Hg); • 4. Subjects with the presence of any CMR contra-indication (including PPM, cerebral aneurysm clips or non-MM approved metallic implant) are excluded from any MRI study component only; • 5. Congenital heart defects (including Ventricular Septal Defect, Atrial Septal Defect, Patent Ductus Arteriosus, Tetralogy of Fallot, and Tricuspid Atresia); • 6. Cardiac surgery within past 4 weeks; • 7. Diastolic heart failure (preserved left ventricular function—determined by known history, ie E:E prime ratio>15); • 8. Severe valvular heart disease: Aortic Stenosis <1.0 cm^2, any Idiopathic hypertrophic subaortic stenosis or Hypertrophic Obstructive Cardiomyopathy, acute Aortic Regurgitation grade 3 or 4 and Mitral Regurgitation grade 3 or 4; • 9. History of cerebrovascular accident (within past 4 weeks) as determined by MM or Computerised Tomography (CT) Scan; • 10. […]

[4] = system: patients with chronic, but stable, New York Heart Association (NYHA) Class III CHF; details: cited from earlier work
[5] = Example 2: estimation of baseline and Cmax for VSDL following infusion (blood samples, mass spectroscopy); type: in vivo, human; details: for half-life: read-out: estimated half-life (t1/2)
Source text: Following the surprising finding that beneficial effects for the treatment of chronic CHF can be achieved with doses that are much less than that which had been proposed, a study was undertaken to estimate the baseline levels of VSDL and Cmax (ie the peak VSDL concentration that is achieved) following infusion.
The baseline VSDL concentration (ie endogenous level) was estimated from an identical sample taken prior to infusion (ie “predose”).

[6] = 25 ng/kg/min iv for 60 mins, 24 hrs post-infusion
[7] = 25 ng/kg/min iv for 60 mins, Baseline
[8] = Subject #2, 12.5 ng/kg/min iv for 60 mins
[9] = Subject #3, 12.5 ng/kg/min iv for 60 mins
[10] = one subject, 25 ng/kg/min iv for 60 mins

## B-type natriuretic peptide [BNP, reference compound]
[1]; in vivo
  biological t1/2: < ½
  circulatory t1/2: ~3.1 min

## EVVPPQVLSEPNEEAGAALSPLPEVPPWTGEVSPAQR [VSDL]
[1]; previously reported
  biological t1/2: > 6 hours
  circulatory t1/2: 120 min
[2]; 100 ng/kg/min for 60 minutes
  expected increase in total circulating VSDL: ~4 fold
[2]; 200 ng/kg/min for 60 minutes
  expected increase in total circulating VSDL: ~8 fold
[3]; 12.5 ng/kg/min iv for 60 mins, three subjects
  safety risks seen by reviewers: no safety risks
[3]; [6]
  CK: 156 U/L
  CK-MB: 1.3 µg/L
  Troponin T: <0.02 µg/L
[3]; [7]
  CK: 188 U/L
  CK-MB: 2.0 µg/L
  Troponin T: <0.02 µg/L
[3]; [8]
  clinical state during the 24 hours following the infusion: stable during the 24 hours
  side-effects: global dyskinesis and no side-
  tolerability of infusion: infusion was well tolerated by
[3]; [9]
  clinical state during and within 24 hours following the infusion: clinically stable during this
  tolerability of infusion: subject tolerated the infusion
[3]; [10]
  safety risks seen by reviewers: no safety risks
  side effects: no side effects
  tolerability of infusion: well tolerated
[4]
  symptomatic side effects: without any symptomatic side effects
[5]; 0.5 hrs following infusion
  Corrected Concentration: 4.376 ng/mL
[5]; 1 hrs following infusion
  Corrected Concentration: 4.376 ng/mL
[5]; 1.5 hrs following infusion
  Corrected Concentration: 1.176 ng/mL
[5]; 2 hrs following infusion
  Corrected Concentration: 0.556 ng/mL
[5]; 3 hrs following infusion
  Corrected Concentration: 0.136 ng/mL
[5]; 4 hrs following infusion
  Corrected Concentration: 0.061 ng/mL
[5]; 5 hrs following infusion
  Corrected Concentration: 0.022 ng/mL
[5]; 6 hrs following infusion
  Corrected Concentration: 0.005 ng/mL
[5]; 12 hrs following infusion
  Corrected Concentration: 0.018 ng/mL
[5]; Predose
  Corrected Concentration: 0.024 ng/mL
[5]; human, blood, intravenous, terminal elimination rate using the LOQ of 0.2 ng/ml
  half-life: 20 min
[5]; human, blood, intravenous, using the point just below the LOQ, excluding and including the Cmax values
  half-life: 25 to 30 min
[5]; human, blood, intravenous, CHF patient (NYHA class III), following infusion
  Tmax: 30 min
[5]; human, blood, iv, 0.5 hrs following infusion, read-out: Concentration
  level at 0.5 h: 4.4 ng/mL
[5]; human, blood, iv, 1 hrs following infusion, read-out: Concentration
  level at 1 h: 4.4 ng/mL
[5]; human, blood, iv, 1.5 hrs following infusion, read-out: Concentration
  level at 1.5 h: 1.2 ng/mL
[5]; human, blood, iv, 2 hrs following infusion, read-out: Concentration
  level at 2 h: 0.58 ng/mL
[5]; human, blood, iv, 3 hrs following infusion, read-out: Concentration
  level at 3 h: 0.16 ng/mL
[5]; human, blood, iv, 4 hrs following infusion, read-out: Concentration
  level at 4 h: 0.085 ng/mL
[5]; human, blood, iv, 5 hrs following infusion, read-out: Concentration
  level at 5 h: 0.046 ng/mL
[5]; human, blood, iv, 6 hrs following infusion, read-out: Concentration
  level at 6 h: 0.029 ng/mL
[5]; human, blood, iv, 12 hrs following infusion, read-out: Concentration
  level at 12 h: 0.042 ng/mL
[5]; human, intravenous, CHF patient (NYHA class III), blood, following infusion, baseline-corrected
  Cmax: 4.38 ng/mL
[5]; measured concentration profile (FIG. 3)
  elimination of VSDL from the blood stream: does not clearly follow first order kinetics
[5]; predose blood sample, CHF patient (NYHA class III)
  baseline (endogenous) VSDL concentration: 0.024 ng/mL
